These results are taken from US20190090524A1, “NOVEL COMPOSITIONS FOR FLAVOR ENHANCEMENT” (INTERNATIONAL FLAVORS & FRAGRANCES INC., priority 2016, published 2019).

Type in all cases: in vivo
The nature of test [1]: Alcohol impression in alcohol-free beer, panel comparison with alcohol solutions. The note with it: 25 ppb in Brahma 0.0% alcohol free beer. On the procedure: 1. […] 2. Alcohol solutions containing varying amounts of ethanol (Alcohol by Volume, “ABV”) were prepared as follows: • Alcohol solutions at 1% ABV, 2% ABV, 2.5% ABV, 3% ABV and 5% ABV were prepared by adding varying amounts of ethanol in Brahma 0.0% alcohol-free beer (Anheuser-Busch InBev); • Alcohol solution at 6% ABV was prepared by adding ethanol in water; and • Alcohol solutions with ABV ranging from 8.75% to 50% were prepared by diluting CAPTAIN MORGAN® Original Spiced Rum (35% ABV) (Diageo North America Inc.) in varying amounts of water. 3. Carbonated water containing carbon dioxide at 6.0, 7.2 and 8.0 g/L, respectively, were prepared.
A β-sitosterol solution (prepared in Example I) was added in Brahma 0.0% alcohol free beer to yield a final concentration of 25 ppb. The alcohol impression of the obtained sample was evaluated and compared by a panel with alcohol solutions at 1% ABV, 2% ABV, 2.5% ABV, 3% ABV and 5% ABV (prepared in Example I). 3-Sitosterol (25 ppb) provided an equal level of alcohol impression as the alcohol solution at 2.5% ABV.

A short description of test [2]: Carbonation sensation in carbonated water of 6.0, 7.2 and 8.0 g/L CO2 with 2.5 ppt β-sitosterol. The note with it: 2.5 ppt in carbonated water of 6.0, 7.2 and 8.0 g/L CO2, all samples. On the procedure:
(C) A β-sitosterol solution (prepared in Example I) was added to carbonated water of 6.0, 7.2 and 8.0 g/L CO2 (prepared in Example I), respectively, to yield a final concentration of 2.5 ppt. The carbonation sensation of the obtained samples was evaluated.

The nature of test [3]: Alcohol sensation intensity in 6% ABV solution, panel, scale 0 to 10. The note with it: mean; 100 ppb in solution of 6% ABV; scale 0 to 10 (0=none, 4=medium, 7=high, 10=extremely high); p<0.01 vs 6% ABV alone. On the procedure: (A) A β-sitosterol solution (prepared in Example I) was added to the alcohol solution at 6% ABV (prepared in Example I) to yield a final concentration of 100 ppb.
The alcohol sensation of the obtained sample was evaluated and compared by a panel with the alcohol solution at 6% ABV using an intensity scale of 0 to 10, where 0=none, 4=medium, 7=high and 10=extremely high. The intensity of alcohol sensation was rated. Mean (“Alcohol Intensity”) and standard error of the mean (“SE”, +) were obtained.

A short description of test [4]: Carbonation sensation in carbonated water (7.2 g/L CO2) with 0.1 to 50 ppt β-sitosterol. On the procedure:
(B) A series of β-sitosterol solutions (prepared in Example I) were added to the carbonated water (7.2 g/L CO2) (prepared in Example I) to yield final concentrations ranging from 0.1 to 50 ppt. The carbonation sensation of the obtained samples containing different amounts of […] was evaluated.

Test [5] can be described thus: Alcohol sensation in 17.5% ABV solution with 3 to 500 ppb β-sitosterol. The protocol: (B) A series of β-sitosterol solutions (prepared in Example I) were added to the alcohol solution at 17.5% ABV (prepared in Example I) to yield final concentrations of β-sitosterol ranging from 3 to 500 ppb. The alcohol sensation of the obtained samples containing different amounts of β-sitosterol was evaluated.

Test [6] in a line: Carbonation effect intensity in carbonated water (7.2 g/L CO2), panel, scale 0 to 10. Conditions: mean; 2.5 ppt in carbonated water 7.2 g/L CO2; scale 0 to 10 (0=none, 4=medium, 7=high, 10=extremely high); p<0.01 vs carbonated water alone. The protocol: (A) A β-sitosterol solution (prepared in Example I) was added to the carbonated water (7.2 g/L CO2) (prepared in Example I) to yield a final concentration of 2.5 ppt.
The carbonation effect of the obtained sample was evaluated and compared by a panel with the carbonated water using an intensity scale of 0 to 10, where 0=none, 4=medium, 7=high and 10=extremely high. The intensity of carbonation effect was rated. Mean (“Carbonation Intensity”) and standard error of the mean (“SE”, +) were obtained.

The nature of test [7]: Flavor of β-sitosterol solutions in water. Conditions: 2.5 to 600 ppb.
The nature of test [8]: Alcohol sensation of alcohol solutions with 25 ppb β-sitosterol, panel comparison with higher ABV solutions. The protocol:
(C) A β-sitosterol solution (prepared in Example I) was added to alcohol solutions at 8.75% ABV, 17.5% ABV and 21.75% ABV (prepared in Example I), respectively, to yield a final concentration of 25 ppb. The alcohol sensation of the obtained samples was evaluated and compared by a panel with alcohol solutions at higher levels of ABV, respectively.

On to `CC[C@H](CC[C@@H](C)[C@H]1CC[C@H]2[C@@H]3CC=C4C[C@@H](O)CC[C@]4(C)[C@H]3CC[C@]12C)C(C)C` [β-sitosterol, (3S,8S,9S,10R,13R,14S,17R)-17-((1R,4R)-4-ethyl-1,5-dimethyl-hexyl)-10,13-dimethyl-2,3,4,7,8,9,10,11,12,13,14,15,16,17-tetradecahydro-1H-cyclopenta[a]phenanthren-3-ol], for which the “alcohol impression, equal level as alcohol solution” value in test [1] is on record as 2.5 % ABV. In test [2], the carbonation sensation entry was “provided enhancement of carbonation sensation”. For the same compound, in test [3], the “Alcohol Intensity” value is 7.21. The carbonation perception result is on record as “slight increase in carbonation perception” in test [4] (0.1 ppt in carbonated water 7.2 g/L CO2) and “clear increase in carbonation perception” in test [4] (2.5 ppt in carbonated water 7.2 g/L CO2). Besides, in test [4] (5 ppt or higher in carbonated water 7.2 g/L CO2), the “enhancement of carbonation effect” value is “reached a stable plateau”. Also, the alcohol sensation entry in test [5] (3 ppb in alcohol solution at 17.5% ABV) is reported as “slight but noticeable increase in alcohol sensation”; in test [5] (at a higher concentration than 3 ppb in alcohol solution at 17.5% ABV) it was “clear increase of alcohol intensity”. For the same compound, the “enhancement of alcohol sensation” value in test [5] (200 ppb in alcohol solution at 17.5% ABV) is on record as “reached a stable plateau”. In addition, the “Carbonation Intensity” value in test [6] is 7.19. Besides, in test [7], the “flavor of β-sitosterol itself” value was “no noticeable flavor”. The “alcohol sensation at the level of an alcohol solution” value in test [8] (25 ppb in alcohol solution at 8.75% ABV) turned out to be 10 % ABV; in test [8] (25 ppb in alcohol solution at 17.5% ABV) it was 22.5 % ABV; in test [8] (25 ppb in alcohol solution at 21.75% ABV) it was 35 % ABV.
